Assay [1] concerns the target BRDT-BD2.
The target in assay [2] is BRDT-BD2 (Homo sapiens, UniProt Q58F21). The assay is described as follows: AlphaScreen competition assay with biotinylated JQ1, BRDT-BD2. Further details: BRDT-BD2, NP_001717.3 amino acid 269− 380; made in house; host or cells: E. coli NiCo21 (DE3). To be noted: AlphaScreen, result in words. In kind it is binding.

Each structure is given as a SMILES string. pIC50: −log10 of the molar value.

For orientation: pIC50 means the IC50 on a negative log10 scale, so that one unit is a factor of ten. Low readings indicate a large IC50, high ones a small IC50. In the case of `CC(=O)Nc1cc(NC(=O)c2ccc3c(c2)c(-c2ccc(N)nc2)nn3C(C)C)ccc1C`, the pIC50 against BRDT-BD2 [1] is 6.60; against BRDT-BD1, less than 5.00.

Take `CC(=O)Nc1cc(NC(=O)c2ccc3c(c2)c(-c2cnc(N)cc2C)nn3C)ccc1C`: the negative logarithm of the IC50 (pIC50) against BRDT-BD2 [1] was 6.90. For `CCn1nc(-c2ccc(N)nc2)c2cc(C(=O)Nc3ccc(C)c(NC(C)=O)c3)ccc21`, the pIC50 was 7.10 on BRDT-BD2 [1] and less than 5.00 against BRDT-BD1. On BRDT-BD2 [1], `CNC(=O)c1ccc(C(=O)Nc2cc(NC(=O)c3ccc4c(c3)c(-c3ccc(C)cc3C)nn4C)ccc2OC)cc1` gave a pIC50 of 7.59. In the case of `CNC(=O)c1ccc(C(=O)Nc2cc(NC(=O)c3ccc4c(c3)c(-c3ccc(N)cc3)nn4C)ccc2OC)cc1`, the negative logarithm of the IC50 (pIC50) against BRDT-BD2 [1] is 7.82; on BRDT-BD1, less than 5.00. `CNC(=O)c1ccc(C(=O)Nc2cc(NC(=O)c3ccc4c(c3)c(-c3ccc(N)cc3C)nn4C)ccc2OC)cc1`: the pIC50 was 7.92 at BRDT-BD2 [1] and less than 5.00 at BRDT-BD1. The corresponding values for `CNC(=O)c1ccc(C(=O)Nc2cc(NC(=O)c3ccc4c(c3)c(-c3ccc(OC)cc3)nn4C)ccc2C)cc1` are 6.28 and less than 5.00. On the same counts, the results for `CNC(=O)c1ccc(C(=O)Nc2cc(NC(=O)c3ccc4c(c3)c(-c3ccccc3C)nn4C)ccc2OC)cc1` are 7.21 and 5.20.

As for `COc1ccc(NC(=O)c2ccc3c(c2)c(-c2cc4ccccc4n2C)nn3C)c(C)c1`, at BRDT-BD2 [1], the pIC50 is 6.74.

As to `COc1ccc(NC(=O)c2ccc3c(c2)c(-c2cc4ccccc4n2C)nn3C)c(Cl)c1`, at BRDT-BD2 [1], the pIC50 is less than 5.90. The same measure, in the same setting: as for `COc1ccc(NC(=O)c2ccc3c(c2)c(-c2cc4ccccc4n2C)nn3C)c(F)c1`, the figure is 6.69; as for `COc1ccc(NC(=O)c2ccc3c(c2)c(-c2cc4ccccc4n2C)nn3C)c(OC)c1`, 6.03; as for `COc1ccc(NC(=O)c2ccc3c(c2)c(-c2cc4ccccc4n2C)nn3C)cc1`, 6.92. `COc1ccc(NC(=O)c2ccc3c(c2)c(-c2cc4ccccc4n2C)nn3C)cc1C` gave a pIC50 at BRDT-BD2 [1] of 6.95. At BRDT-BD2 [1], `COc1ccc(NC(=O)c2ccc3c(c2)c(-c2cc4ccccc4n2C)nn3C)cc1Cl` gave a pIC50 of 6.79.

`COc1ccc(NC(=O)c2ccc3c(c2)c(-c2cc4ccccc4n2C)nn3C)cc1F` showed a negative-log IC50 (pIC50) against BRDT-BD2 [1] of 6.92. `COc1ccc(NC(=O)c2ccc3c(c2)c(-c2cc4ccccc4n2C)nn3C)cc1OC` showed a pIC50 against BRDT-BD2 [1] of 7.00.

As to `COc1ccc(NC(=O)c2ccc3c(c2)c(-c2ccc(N)cc2C)nn3C)cc1NC(=O)c1ccccc1`, the negative-log IC50 (pIC50) against BRDT-BD2 [1] was 7.46. As for `Cc1cc(N)ccc1-c1nn(C)c2ccc(C(=O)Nc3ccccc3)cc12`, the pIC50 against BRDT-BD2 [1] is 7.05; against BRDT-BD1, less than 5.00. Consider `CNC(=O)c1ccc(C(=O)Nc2cc(NC(=O)c3ccc4c(c3)c(-c3cc5ccccc5n3C)nn4C)ccc2OC)cc1` [Compound 3], for which the “BRDT-BD2 activity / affinity” value on BRDT-BD2 [2] is reported as “low nanomolar affinity”. On BRDT-BD2 [1], this compound had a pIC50 of 7.66. In the case of `CNC(=O)c1ccc(C(=O)Nc2cc(NC(=O)c3ccc4c(c3)c(-c3ccncc3)nn4C)ccc2C)cc1` [Compound 12], at BRDT-BD2 [2], the “BRDT-BD2 activity / affinity” value is “weaker-binding”. In addition, the negative logarithm of the IC50 (pIC50) at BRDT-BD2 [1] was 6.01. For the compound `CNC(=O)c1ccc(C(=O)Nc2cc(NC(=O)c3ccc4c(c3)c(-c3cnc(N)nc3)nn4C)ccc2C)cc1` [Compound 13], the “BRDT-BD2 activity / affinity” value on BRDT-BD2 [2] is listed as “lower affinity than compound 10”. The pIC50 is 6.86 against BRDT-BD2 [1] and less than 5.00 on BRDT-BD1. Turning to `CNC(=O)c1ccc(C(=O)Nc2cc(NC(=O)c3ccc4c(c3)c(-c3ccc(N)nc3C)nn4C)ccc2C)cc1` [Compound 14], at BRDT-BD2 [2], the “BRDT-BD2 activity / affinity” value is “lower affinity than compound 10”. This compound also showed a pIC50 on BRDT-BD2 [1] of 7.03.

As for `COc1ccc(NC(=O)c2ccc3c(c2)c(-c2ccc(N)cc2C)nn3C)cc1` [Compound 24], the “BRDT-BD2 activity / affinity” value at BRDT-BD2 [2] is reported as “dramatic loss of activity”. Moreover, the negative logarithm of the IC50 (pIC50) on BRDT-BD2 [1] was 7.27. With `COc1ccc(N(C)C(=O)c2ccc3c(c2)c(-c2ccc(N)cc2C)nn3C)cc1` [Compound 26], on BRDT-BD2 [2], the “BRDT-BD2 activity / affinity” value was “loss of potency”. The figures for the pIC50 against BRDT-BD2 [1] and against BRDT-BD1 were less than 6.00 and less than 5.00, respectively.

For the origin of these results see paper PMC7936271, “Discovery and characterization of bromodomain 2–specific inhibitors of BRDT” (Proceedings of the National Academy of Sciences of the …, 2021).
